Patent US20040254344A1, “Amino acid conjugates providing for sustained systemic concentrations of gaba analogues” (priority 2001, published 2004)
Read-outs that look alike come from different tables or passages of the source.

Assays:
[1] = Caco-2 homogenate S9 stability; format: in vitro ADME; conditions: incubation with Caco-2 homogenate for 1 hour, 5 μM, 37° C.
Protocol: Tissue homogenates and plasma samples were obtained from commercial sources (Pel-Freez Biologicals, Rogers, Ark., and GenTest Corporation, Woburn, Mass.). Stability of prodrugs toward the specific enzyme aminopeptidase was also evaluated by incubation with the purified enzyme. Experimental conditions used for the in vitro studies were as follows. Each preparation was incubated with test compound at 37° C. for one hour. Aliquots (50 μL) were removed at 0, 30, and 60 min and quenched with 0.1% trifluoroacetic acid in acetonitrile. Samples were then centrifuged and analyzed for the presence of prodrug and released gabapentin by LC/MS/MS as described below.
Concentrations of prodrug or gabapentin in tissue extracts were determined by direct injection onto an API 2000 LC/MS/MS equipped with an Agilent 1100 binary pump and autosampler. Separation was achieved using a 3.5 μm Zorbax Ellipse XDB-C8 4.4×150 mm column heated to 45° C. during the analysis. The mobile phases were: 0.1% formic acid in water (A) and 0.1% formic acid in acetonitrile (B). The gradient condition was: 2% B for 0.5 min, increasing to 90% B in 2.0 min, maintained for 2.5 min and returning to 2% B for 2 min. A TurboIonSpray source was used on the API 2000. The analysis was performed in the positive ion mode and MRM transitions of 172.0/137.2 were used in the analysis of gabapentin (2). Ten microliters of the sample extracts were injected. Peaks were integrated using Analyst quantitation software. The method was linear for (2) over the concentration range 0.002 to 2.5 μg/mL respectively.
Caco-2 Homogenate S9 Stability: Caco-2 cells were grown for 21 days prior to harvesting. Culture medium was removed and cell monolayers were rinsed and scraped off into ice-cold 10 mM sodium phosphate/0.15 M potassium chloride, pH 7.4. Cells were lysed by sonication at 4° C. using a probe sonicator. Lysed cells were then transferred into 1.5 mL centrifuge vials and centrifuged at 9000 g for 20 min at 4° C. The resulting supernatant (Caco-2 cell homogenate S9 fraction) was aliquoted into 0.5 mL vials and stored at −80° C. until used.
For stability studies, prodrug (5 μM) was incubated in Caco-2 homogenate S9 fraction (0.5 mg protein per mL) for 60 min at 37° C. Concentrations of intact prodrug and released drug were determined at zero time and 60 minutes using LC/MS/MS.

[2] = rat; for Cmax PD (Cmax of prodrug in plasma): oral prodrug 25 mg-equivalents of gabapentin per kg; for Cmax of gabapentin in plasma: single oral dose 25 mg/kg gabapentin or 25 mg-equivalents of gabapentin per kg
Protocol: The pharmacokinetics of the prodrugs prepared in Examples 1 and 3 were examined in rats. […] Animals were fasted overnight prior to dosing and until 4 hours post-dosing. Serial blood samples were obtained over 24 hours following dosing and blood was processed for plasma by centrifugation. Plasma samples were stored at −80° C. until analyzed.
Plasma (50 μL) was precipitated by addition of […] of methanol and supernatant was injected directly onto the LC/MS/MS system. […] Following oral administration of gabapentin prodrugs, concentrations of prodrug and gabapentin in plasma were monitored over 24 hours.

[3] = rat, oral and i.v. dosing of prodrug
[4] = monkey, sodium salt, 10 mg-equivalents of gabapentin per kg
[5] = monkey; for increase in gabapentin exposure (as measured by AUC) on a 7.5-fold increase in dose / AUC G (AUC of gabapentin) / Cmax G (Cmax of gabapentin): oral; for increase in gabapentin exposure (as measured by AUC) on a 7.5-fold increase in dose: 10 to 75 mg-eq/kg
Protocol: The prodrug was administered orally to four adult male monkeys (approximate body weight of 6.5 kg) via an oral nasogastric tubeas solutions in water or PEG 400. The dose was 10 or 75 mg-equivalents of gabapentin per kg body weight. Animals were fasted overnight before the study and for 4 hours post-dosing. Blood samples (1.0 mL) were obtained via femoral or cephalic venipuncture at intervals over 48 hours after oral dosing. Blood was processed immediately for plasma and plasma was frozen at −80° C. until analyzed. […] Oral bioavailability was determined by comparison of area under the gabapentin concentration versus time curve (AUC) following oral administration of prodrug or intravenous administration of an equimolar dose of gabapentin hydrochloride.

PEPT1 = conditions: tested at 1 mM on oocytes expressing PEPT1; normalised to 1 mM glycyl-sarcosine
Protocol: (§1) Rat and human PEPT1 and PEPT2 expressing CHO cell lines were prepared as described in PCT Application WO01/20331. Gabapentin-containing dipeptides were evaluated for interaction with the peptide transporters using a radiolabeled substrate uptake assay in a competitive inhibition format, as described in PCT Application WO01/20331. Transport-induced currents were also measured in Xenopus oocytes transfected with rat and human PEPT1 and PEPT2.
(§2) RNA preparation: Rat and human PEPT1 and PEPT2 transporter cDNAs were subdcloned into a modified pGEM plasmid that contains 5′ and 3′ untranslated sequences from the Xenopus β-actin gene. These sequences increase RNA stability and protein expression. Plasmid cDNA was linearized and used as template for in vitro transcription (Epicentre Technologies transcription kit, 4:1 methylated:non-methylated GTP).
(§3) Xenopus oocyte isolation. Xenopus laevis frogs were anesthetized by immersion in Tricaine ([…] in deionized water) for 15 min. […]
(§4) Electrophysiology measurements. Transport currents were measured 2-14 days after injection, using a standard two-electrode electrophysiology set-up (Geneclamp 500 amplifier, Digidata 1320/PCLAMP software and ADInstruments hardware and software were used for signal acquisition).

PEPT2 = conditions: tested at 1 mM on oocytes expressing PEPT2; normalised to 1 mM glycyl-sarcosine
Protocol: as §1, §2, §3, §4

Compound: N[C@@H](Cc1ccc(C(F)(F)F)cc1)C(=O)NCC1(CC(=O)O)CCCCC1 [1aa, L-4-Trifluoromethylphenylalanine-Gabapentin]
- % of prodrug surviving intact [1]: 97%
- Cmax PD (Cmax of prodrug in plasma) [2]: 30000 ng/mL

Compound: N[C@@H](Cc1ccccc1F)C(=O)NCC1(CC(=O)O)CCCCC1 [1ab, L-2-Fluorophenylalanine-Gabapentin]
- fraction absorbed intact following oral administration [3]: about 60%

Compound: N[C@@H](Cc1ccc(Br)cc1)C(=O)NCC1(CC(=O)O)CCCCC1 [1ah, L-4-Bromophenylalanine-Gabapentin]
- % of prodrug surviving intact [1]: 79%
- Cmax PD (Cmax of prodrug in plasma) [2]: 103000 ng/mL
- Cmax of gabapentin in plasma [2]: 6100 ng/mL
- AUC G (AUC of gabapentin) ([4]; oral): 29100 ± 3500 ng·h/mL
- AUC PD (AUC of prodrug) ([4]; oral): 18900 ± 6500 ng·h/mL
- Cmax G (Cmax of gabapentin) ([4]; oral): 3800 ± 1100 ng/mL
- Cmax PD (Cmax of prodrug) ([4]; oral): 14900 ± 5300 ng/mL
- F (oral bioavailability as gabapentin) [4]: 49.1±6.8%

Compound: N#Cc1cccc(C[C@H](N)C(=O)NCC2(CC(=O)O)CCCCC2)c1 [1al, L-3-Cyanophenylalanine-Gabapentin]
- % of prodrug surviving intact [1]: 46%
- Cmax PD (Cmax of prodrug in plasma) [2]: 600 ng/mL

Compound: N#Cc1ccc(C[C@H](N)C(=O)NCC2(CC(=O)O)CCCCC2)cc1 [1am, L-4-Cyanophenylalanine-Gabapentin]
- % of prodrug surviving intact [1]: 90%
- Cmax PD (Cmax of prodrug in plasma) [2]: 22400 ng/mL

Compound: N[C@@H](Cc1cc(F)cc(F)c1)C(=O)NCC1(CC(=O)O)CCCCC1 [1ao, L-3,5-Difluorophenylalanine-Gabapentin]
- % of prodrug surviving intact [1]: 48%
- Cmax PD (Cmax of prodrug in plasma) [2]: 2900 ng/mL

Compound: NC(Cc1ccc(F)cc1F)C(=O)NCC1(CC(=O)O)CCCCC1 [1ap, D, L-2,4-Difluorophenylalanine-Gabapentin]
- % of prodrug surviving intact [1]: 90%
- Cmax PD (Cmax of prodrug in plasma) [2]: 278000 ng/mL

Compound: N[C@@H](CO)C(=O)NCC1(CC(=O)O)CCCCC1 [1ax, L-Serine-Gabapentin]
- increase in gabapentin exposure (as measured by AUC) on a 7.5-fold increase in dose [5]: 5.1 fold
- fraction absorbed intact following oral administration [3]: 15-20%

Compound: N[C@@H](Cc1cccc2ccccc12)C(=O)NCC1(CC(=O)O)CCCCC1 [1l, L-1-Naphthylalanine-Gabapentin]
- % of prodrug surviving intact [1]: 29%
- Cmax PD (Cmax of prodrug in plasma) [2]: 500 ng/mL

Compound: NCC1(CC(=O)O)CCCCC1 [compound 2, gabapentin]
- F (oral bioavailability as gabapentin) ([5]; 10 mg-eq/kg): 53.9±17.3%
- F (oral bioavailability as gabapentin) ([5]; 75 mg-eq/kg): 22.9±1.1%
- AUC G (AUC of gabapentin) ([5]; 10 mg-eq/kg): 32100 ± 10400 ng·h/mL
- Cmax G (Cmax of gabapentin) ([5]; 10 mg-eq/kg): 3700 ± 1600 ng/mL
- AUC G (AUC of gabapentin) ([5]; 75 mg-eq/kg): 102000 ± 4900 ng·h/mL
- Cmax G (Cmax of gabapentin) ([5]; 75 mg-eq/kg): 10800 ± 1300 ng/mL
- increase in gabapentin exposure (as measured by AUC) on a 7.5-fold increase in dose [5]: 3.2 fold
- Cmax of gabapentin in plasma [2]: 10300 ng/mL

Compound: CC(C)C[C@H](CNC(=O)[C@@H](N)Cc1ccc(Br)cc1)CC(=O)O [compound 5, L-4-Bromophenylalanine-Pregabalin]
- PEPT-specific currents above background (PEPT1): at least 5 % of Imax for Gly-Sar
- PEPT-specific currents above background (PEPT2): at least 5 % of Imax for Gly-Sar

Compound: L-Tyrosine-(O-2-Bromobenzyloxycarbonyl)-Gabapentin [4d]
- % of prodrug surviving intact [1]: 3%
